A melting point compilation (Tetko et al.; mined from patent text by program, amines drawn as free bases though some values may be those of a salt)

melting point	SMILES
150 to 155 °C	Cc1cc(C)c2cccc(OCc3c(Cl)ccc(S(=O)(=O)N4CCC[C@H]4C(=O)N4CCN(C(=O)c5ccc(C=NN)cn5)CC4)c3Cl)c2n1
140 to 143 °C	Cc1ccc(S(=O)(=O)n2c(I)cc3c(Br)ccnc32)cc1
170 to 171 °C	CCOC(=O)C(Cc1cc(Cl)c(Sc2ccc(OC)c(Cc3ccc(OC)nc3)c2)c(Cl)c1)(NC(C)=O)C(=O)OCC
92 to 94 °C	COc1ccc2c(c1)/C(=C/CNC(C)=O)CCC2
> 300 °C	Cn1cccc(C(=O)Nc2ccc3c(c2)NC(=O)/C3=C\c2ccc[nH]2)c1=O
160 to 162 °C	CS(=O)(=O)Nc1ccc(N)cc1CC1CCCCC1
283 to 286 °C	COc1ccc(C(=O)Nc2c(Cl)cncc2Cl)c2c1OCC2CC(=O)NCc1ccc(Cl)cc1 (centres undefined)
121 to 124 °C	CC(=O)CCN1C[C@H]2Cc3ccccc3[C@H](c3ccccc3)[C@H]2C1 (racemic)
153 to 155 °C	Cn1c(CN)nc(-c2ccncn2)cc1=O
120 to 121 °C	COc1cc(CO)cc2c(Br)ccc(OC(C)C)c12
160 to 161 °C	COc1ccc(Nc2ccc(Nc3ncnc4cc(-c5ccccc5)sc34)cc2)cc1OC
128 to 129 °C	CCCCc1nc2c(N)nc3cccnc3c2n1CCCCNC(=O)CSc1ccncc1
51 to 52 °C	N#CC1(N)CCSCC1
212 to 214 °C	COc1ccccc1N1CCN(CCCn2c(=O)[nH]c3c(c2=O)CCCC3)CC1
120 to 140 °C	CS(=O)(=O)NCC(=O)N1CCC(C2c3ncc(Br)cc3CCc3cc(Cl)cc(Cl)c32)CC1 (single isomer, unassigned; (+))
178 to 180 °C	NC(=O)c1cc(NCc2ccc(F)cc2)c([N+](=O)[O-])cc1[N+](=O)[O-]
155 to 157 °C	O=[N+]([O-])c1ccc(S(=O)(=O)C2COCC2Br)cc1 (centres undefined)
187 to 190 °C	CCOC(=O)c1cnc2ccn(-c3ccccc3)n2c1=O
138 to 142 °C	CCCCc1nc2c(N)nc3ccccc3c2n1CCCCNS(=O)(=O)c1cccs1
87.5 to 88.5 °C	N#Cc1ccc(C(=O)N=C=S)cc1
124 to 126 °C	O=[S@@]1CCCC[C@@H]1c1cccnc1
342 °C	O=C(Nc1cccc2c(=O)cc[nH]c12)c1c(Cl)cccc1Cl
161 °C	CCn1c(C(F)(F)F)nn(-c2cc(N)c(C(N)=S)cc2F)c1=O

melting point	SMILES
204 to 206 °C	O=c1c2cc(F)c(F)cc2n(-c2ccccc2F)c(=O)n1OCc1ccccc1
252 to 254 °C	Cc1cc2nc(N)[nH]c(=O)c2[nH]1
213 to 214 °C	NC(=O)c1c(Cl)cn2c1CN(S(=O)(=O)c1ccc(-c3ccccn3)s1)CC2
104 °C	CC(Cl)CC(C)Oc1ccc(-c2ccc(C(=O)Oc3ccc(C#N)cc3)cc2)cc1 (centres undefined)
320 to 321 °C	O=C(O)c1ccc2c(c1)C(=O)c1cc3c(cc1OC2)OCO3
112 to 113 °C	Cc1cc2c3c(ccn2n1)CCC3CCNC(=O)C1CC1 (centres undefined)
145 °C	COC(=O)Nc1c(C#N)cnn1-c1c(Cl)cc(SC(F)(F)F)cc1Cl
216 to 218 °C	Oc1ccc2c(c1)COc1c-2cc2ccc(O)cc2c1-c1ccoc1
156 to 157 °C	O=[N+]([O-])c1cccc(OCc2nc3ccccc3s2)c1
82 to 87 °C	CCO[C@@H]1[C@@H](OC)[C@H](C)O[C@@H](ON=Cc2ccc(C#Cc3ccc(OC(F)(F)F)cc3)cc2)[C@@H]1OC
101 °C	CCCCCCCCCCCCCCC(=O)NC1CC(C)(C)N(CC#N)C(C)(C)C1
73.8 to 74 °C	COCOc1ccc(C(=O)OC)c(O)c1C
80 to 82 °C	CCOC(=O)C(=O)Cc1c(OCc2ccccc2)cc(C)cc1[N+](=O)[O-]
96 to 101 °C	CC(C)c1cc(C(C)C)c(C(O)C(=O)c2ccc(C(C)C)c(OS(N)(=O)=O)c2C(C)C)c(C(C)C)c1 (centres undefined)
211 °C	Nc1cccc(C(=O)c2cccc3ccccc23)c1O
93 to 95 °C	CCCCCCc1cccc(-c2cn(C)cc(-c3ccccc3)c2=O)c1
116 to 117 °C	O=C(Nc1ccccc1O)c1ccc(OCCCCc2ccccc2)cc1
137 to 140 °C	CCOC(=O)c1c(Nc2cc(F)ccc2[N+](=O)[O-])sc2ccccc12
253 to 254 °C	Cc1c(C(=O)O)c(CC(=O)O)n(C)c1C(=O)c1ccc(Cl)cc1
233 to 234 °C	CNC(=O)Nc1cc2c(s1)CCCC2NC(=O)NC (centres undefined)
99 to 100 °C	O=C1c2ccc(-c3ccccc3)cc2CC1Br (centres undefined)
94 to 96 °C	O=C1C(c2c[nH]c3ncccc23)=C(c2cn(S(=O)(=O)c3ccccc3)c3ccccc23)C(=O)N1COCc1ccccc1
160 to 161 °C	Cn1cc(-c2cccc(Cl)c2)c(=O)c(-c2ccccc2Cl)c1

melting point	SMILES
118 to 120 °C	CCCNC(=O)C1(CCCCN2CCC(NC(=O)OC(C)(C)C)CC2)c2ccccc2-c2ccccc21
198 to 200 °C	Cn1cc(C(=O)c2cnc[nH]2)cc1C(=O)c1ccc(Cl)cc1
153 to 155 °C	CCCCCCCCCCCCCCCCCCOc1cc(OCCCCc2ccc3cc(O)c(O)cc3c2)cc(N(CC(=O)O)CC(=O)O)c1
154 to 155 °C	COc1ccnc(CCc2nc3cc(-c4ccsc4)cnc3[nH]2)c1
228 to 229 °C	O=C(Cn1c(-c2ccc(Cl)cc2)nc2cccnc21)NCC1CC1
128 °C	CCOC(=O)C1=C(C)Nc2nc(N3CCOCC3)nc(N3CCOCC3)c2C1c1ccc(Cl)cc1 (centres undefined)
69 to 70 °C	O=C(CCCCC1(C(=O)O)CCC1)CCCCC1(C(=O)O)CCC1
84 to 86 °C	COc1cc(OC)c(C2=NC(C)(C)CO2)cc1OC
66 to 72 °C	COC(=O)C(C)(C)c1ccc(OCCNC(=O)C2Cc3ccccc3N2S(=O)(=O)c2ccc(-c3cc(C(F)(F)F)ccc3Cl)cc2)cc1 (centres undefined)
187 °C	O=P(O)(O)C(O)(CCc1ccc(Cl)c(Cl)c1)P(=O)(O)O
178 to 179 °C	NC(=O)c1ccccc1N1CCN(Cc2cn3cc(Cl)ccc3n2)CC1
109 to 114 °C	CN(CC1CC(c2ccc(F)cc2)=NO1)C1CCC(c2ccc3[nH]c(=O)oc3c2)CC1 (centres undefined)
162 °C	O=S1(=O)c2cccc3cccc(c23)N1CCN1CCN(c2nsc3ccccc23)CC1
250 °C	CCNCC(=O)Nc1cccc2c1C(=O)c1c-2n[nH]c1-c1ccc(OC)cc1
189 to 190 °C	COc1ccc2c3c(cn2S(=O)(=O)c2ccc(C)cc2)CC(NC(=O)C(F)(F)F)C(=O)c13 (centres undefined)
245 to 247 °C	CC#CCOc1ccc(S(=O)(=O)NC(C(=O)O)c2ccc(OCCN3CCCC3)cc2)cc1 (centres undefined)
172 to 174 °C	O=C1C(=O)c2ccccc2C2=C1SCC1(CCN(c3cc(Cl)ncn3)CC1)O2
93 to 94 °C	Cc1cc(-c2cccc(C(F)(F)F)c2)c2ncc(C(F)(F)F)nc2c1
228 to 230 °C	Cc1cc(C)nc(-n2nc(S(=O)(=O)Nc3c(F)cccc3F)nc2C)n1
170 to 172 °C	COC(=O)Nc1cccc(C)c1CNc1cccn2c(CO)c(C)nc12
159 to 160 °C	N#Cc1ccc(OCCCCCCOc2ccc(-c3cc4ccc(C#N)cc4o3)cc2)cc1
149 to 151 °C	O=C(Nc1ccccc1)Oc1cc(N2C(=O)C3=C(CCCC3)C2=O)c(F)cc1Cl
242 °C	Cn1nc(-c2cc3c(cc2F)NC(=O)CO3)c(Cl)c1C(F)(F)F

melting point	SMILES
133 to 136 °C	CC(C)(C)CNc1nc(Cl)ncc1CN=[N+]=[N-]
156 to 157 °C	CC(C)CCN1C(=O)C(NC(=O)Nc2ccccc2)C(=O)N(CC23CC4CC(CC(C4)C2)C3)c2ccccc21 (centres undefined)
145 to 148 °C	CC(=O)OCC1OC(OC2C(COC(C)=O)OC(Sc3ccc(N)cc3)C(OC(C)=O)C2OC(C)=O)C(OC(C)=O)C(OC(C)=O)C1OC(C)=O (centres undefined)
149 °C	Cc1cccc(C)c1NC(=O)CN1CCN(Cc2ccccc2)CC1C(C)O (centres undefined)
153 to 155 °C	COc1cc(NCCN(C)Cc2ccccc2)ccc1C(N)=O
173 to 174 °C	CCC(=C(c1ccc(O)cc1)c1ccc(O)cc1)c1cccc(-c2c(C)noc2C)c1
104 to 106 °C	CCCCCCCCOc1ccc(C(=O)Nc2cccc(Cl)c2Cl)cc1
172 to 173 °C	Cc1nn(-c2ccccn2)c2[nH]c3c(c(=O)c12)CCCC3
165 to 167 °C	CC(C)[C@H](NC(=O)OCc1csc(N2CCCC2)n1)C(=O)N[C@@H](Cc1ccccc1)[C@@H](O)C[C@H](Cc1ccccc1)NC(=O)OCc1cncs1
68 to 70 °C	CC(=O)OC1=C(C=O)C=C2OCCC2C1 (centres undefined)
123 to 125 °C	CSc1cc(C)nc(SC)c1NC(=O)CCCCCSc1nc2ccccc2s1
101 to 102 °C	COc1ccc(CCNCC(O)COc2cccc3nn(Cc4ccccc4)cc23)cc1OC (centres undefined)
141 to 143 °C	CS(=O)(=O)Nc1ccccc1NC1=CC=NC(Nc2ccc3c(c2)CNCCS3)N1Cl (centres undefined)
210 to 211 °C	S=c1[nH]ccn1C1Cc2ccccc2C1
154 to 155 °C	Cc1ccc(Cc2cnc(NCCSCc3csc(CN(C)C)n3)[nH]c2=O)cn1
122 to 125 °C	COC(=O)c1ccc2c(Br)nn(C)c2c1
> 300 °C	N=C(N)c1nc2c(s1)CCc1c-2sc2nc3ccccc3n12
194 °C	O=C(Nc1cc2nc(-c3ccc(C(=O)C4CCCCCC4)cc3)[nH]c2cn1)C1CCCCCC1
152 to 153 °C	Cc1ccc(Nc2nnc(Cc3ccncc3)c3ccccc23)cc1
186 to 188 °C	N#Cc1cc([N+](=O)[O-])cc(O)c1O
207 °C	CCn1cc(C(=O)O)c(=O)c2cnc(N3CCN(Cc4ccccc4)CC3)nc21
150 °C	COc1cc(NCCO)c([N+](=O)[O-])c(NCCO)c1
168 to 169 °C	CC(C)(C)OC(=O)N1CCn2c(Br)c(-c3cccc(F)c3)c(C(=O)n3ccnc3)c2C1

SMILES	melting point
CC(=O)N1CCC(C(=O)N2CC[C@@H](N(C)C(=O)c3ccc(C4CC4)cc3)[C@H](c3ccc(Cl)c(Cl)c3)C2)CC1	129 to 133 °C
COc1cccc(C2(CNC(=O)Nc3c(C(C)C)cc(N)cc3C(C)C)CCN(c3ccccc3O)CC2)c1	207 to 208 °C
